Data reported in article PMC4561856, “Atomic basis for therapeutic activation of neuronal potassium channels” (Nature Communications, 2015).
Where a chain is given by its changes, count along the chain named. Like-named read-outs stand apart in the source and are kept apart here.

What was measured:
[1] = tested on: KCNQ3*[Trp265TAG] rescued with F3-Trp; experiment: Two-electrode voltage clamp of F3-Trp-rescued KCNQ3*[Trp265TAG] channels (nonsense suppression); format: cell-based, human; details: for drug potency relative to Trp-rescued channels: F3-Trp substitution at Trp265
From the text: (§1) KCNQ2 (human) and KCNQ3 (human) channel cDNAs were propagated and manipulated using the pTLN vector (gifts of Dr M. Taglialatela and Dr T. Jentsch). Introduction of point mutations was accomplished using PCR to combine two fragments each of which contained the mutation in an overlapping region of the sequence (‘two-step’ PCR method). To accomplish this, we used standard PCR approaches to amplify a 5′ fragment and a 3′ fragment (using a ‘flanking primer’ paired with a mutagenic primer). These fragments were then mixed along with the ‘flanking primer’ pair for a second round of PCR to combine the overlapping fragments. The resulting fragment was then subcloned into the appropriate parent vector using EcoRI and NotI restriction enzymes, and the sequence was verified by Sanger sequencing approaches (Genewiz). Sequences for the flanking primers and the ‘forward’ mutagenic primers are provided in Supplementary Table 1 for all mutations that were generated (‘reverse’ mutagenic primers are simply the reverse complement). In all experiments involving homomeric expression of KCNQ3 channels (including in vivo nonsense suppression experiments), the Ala315Thr mutation was introduced to enable efficient trafficking of homomeric KCNQ3. […] The plasmid encoding CivSP was kindly provided by Dr Y. Okamura. Complementary RNA was transcribed from the cDNA using the mMessage mMachine Kit (Ambion). Stage V–VI Xenopus laevis oocytes were prepared as previously described and were injected with cRNA alone or cRNA plus synthetic tRNA (for nonsense suppression, described below). Oocyte preparation was carried out using a protocol approved by the University of British Columbia Animal Care Committee, in accordance with the Canadian Council for Animal Care guidelines. We used female Xenopus laevis frogs 100 g or greater in size. After injection, oocytes were incubated for 12–48 h at 18 °C before recording.
Fluorinated Trp derivatives (5-F1-Trp; 7-F1-Trp; 5,7-F2-Trp (F2-Trp) and 5,6,7-F3-Trp (F3-Trp) were purchased from Asis Chem (Watertown, MA) and Sigma-Aldrich (St Louis, MO). The ‘Ind’ Trp variant was synthesized in-house as described previously. Incorporation of unnatural amino acids into ion channel proteins was carried out as described extensively in prior publications. Briefly, unnatural amino acids (aa) were protected with nitroveratryloxycarbonyl and were activated as the cyanomethyl ester, which were then coupled to the dinucleotide pdCpA (GE Healthcare/Dharmacon, Lafayette, CO). This aminoacyl dinucleotide was subsequently ligated to a modified (G73) Tetrahymena thermophile tRNA. […]
(§2) Voltage-clamped potassium currents were recorded in standard Ringers solution (in mM): 116 NaCl, 2 KCl, 1 MgCl2, 0.5 CaCl2, 5 HEPES (pH 7.4) using an OC-725C voltage clamp (Warner, Hamden, CT). […]

[2] = target: T1, KCNQ3* (KCNQ3[Ala315Thr]) (Homo sapiens, UniProt O43525, A315T); experiment: Two-electrode voltage clamp of homomeric KCNQ3* channels in Xenopus oocytes; format: cell-based
T1 sequence (O43525 1-872 A315T): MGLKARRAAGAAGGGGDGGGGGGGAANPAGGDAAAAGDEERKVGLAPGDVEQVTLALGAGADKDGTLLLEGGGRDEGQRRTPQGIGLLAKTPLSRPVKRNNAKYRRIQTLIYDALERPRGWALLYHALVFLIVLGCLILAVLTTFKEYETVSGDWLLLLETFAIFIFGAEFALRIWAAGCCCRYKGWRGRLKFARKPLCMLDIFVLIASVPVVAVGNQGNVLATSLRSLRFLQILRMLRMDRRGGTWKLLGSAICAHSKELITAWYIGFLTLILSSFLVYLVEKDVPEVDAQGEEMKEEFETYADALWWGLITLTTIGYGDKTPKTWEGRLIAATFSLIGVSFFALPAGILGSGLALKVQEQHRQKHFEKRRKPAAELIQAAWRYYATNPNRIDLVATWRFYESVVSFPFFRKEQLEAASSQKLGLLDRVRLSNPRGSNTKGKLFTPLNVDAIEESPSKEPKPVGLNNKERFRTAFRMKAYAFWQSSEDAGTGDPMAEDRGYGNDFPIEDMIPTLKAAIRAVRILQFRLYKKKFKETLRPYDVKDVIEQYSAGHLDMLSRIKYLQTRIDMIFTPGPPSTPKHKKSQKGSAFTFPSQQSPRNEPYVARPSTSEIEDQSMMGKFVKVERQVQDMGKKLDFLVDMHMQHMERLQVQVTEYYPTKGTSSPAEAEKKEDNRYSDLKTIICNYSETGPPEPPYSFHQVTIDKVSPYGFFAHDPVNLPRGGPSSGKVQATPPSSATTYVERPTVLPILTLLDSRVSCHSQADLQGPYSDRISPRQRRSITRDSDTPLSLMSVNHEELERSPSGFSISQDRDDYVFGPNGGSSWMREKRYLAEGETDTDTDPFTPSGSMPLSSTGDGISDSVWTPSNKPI
From the text: as §1
Voltage-clamped potassium currents were recorded in standard Ringers solution (in mM): 116 NaCl, 2 KCl, 1 MgCl2, 0.5 CaCl2, 5 HEPES (pH 7.4) using an OC-725C voltage clamp (Warner, Hamden, CT). Glass microelectrodes were backfilled with 3 M KCl and had resistances of 0.1–1 MΩ. Data were filtered at 5 kHz and digitized at 10 kHz using a Digidata 1440A (Molecular Devices) controlled by the pClamp 10 software (Molecular Devices). Drugs were purchased from Toronto Research Chemicals (retigabine) or Tocris (ML-213, flupirtine, ICA-069673, ICA-110381), stored as 100 mM stocks in dimethylsulphoxide and diluted to working concentrations each experimental day.

[3] = tested on: KCNQ3*[Trp265Ind]; experiment: Two-electrode voltage clamp of Ind-rescued KCNQ3*[Trp265TAG] channels (nonsense suppression); format: cell-based, human; details: Ind at position 265; up to 100 μM retigabine
From the text: (§3) KCNQ2 (human) and KCNQ3 (human) channel cDNAs were propagated and manipulated using the pTLN vector (gifts of Dr M. Taglialatela and Dr T. Jentsch). Introduction of point mutations was accomplished using PCR to combine two fragments each of which contained the mutation in an overlapping region of the sequence (‘two-step’ PCR method). To accomplish this, we used standard PCR approaches to amplify a 5′ fragment and a 3′ fragment (using a ‘flanking primer’ paired with a mutagenic primer). These fragments were then mixed along with the ‘flanking primer’ pair for a second round of PCR to combine the overlapping fragments. The resulting fragment was then subcloned into the appropriate parent vector using EcoRI and NotI restriction enzymes, and the sequence was verified by Sanger sequencing approaches (Genewiz). Sequences for the flanking primers and the ‘forward’ mutagenic primers are provided in Supplementary Table 1 for all mutations that were generated (‘reverse’ mutagenic primers are simply the reverse complement). […]
as §2

[4] = target: KCNQ2 (Homo sapiens, UniProt O43526); experiment: Two-electrode voltage clamp of homomeric KCNQ2 channels in Xenopus oocytes; format: cell-based; details: 100 μM retigabine (Fig. 1)
Sequence of KCNQ2 (O43526 whole entry): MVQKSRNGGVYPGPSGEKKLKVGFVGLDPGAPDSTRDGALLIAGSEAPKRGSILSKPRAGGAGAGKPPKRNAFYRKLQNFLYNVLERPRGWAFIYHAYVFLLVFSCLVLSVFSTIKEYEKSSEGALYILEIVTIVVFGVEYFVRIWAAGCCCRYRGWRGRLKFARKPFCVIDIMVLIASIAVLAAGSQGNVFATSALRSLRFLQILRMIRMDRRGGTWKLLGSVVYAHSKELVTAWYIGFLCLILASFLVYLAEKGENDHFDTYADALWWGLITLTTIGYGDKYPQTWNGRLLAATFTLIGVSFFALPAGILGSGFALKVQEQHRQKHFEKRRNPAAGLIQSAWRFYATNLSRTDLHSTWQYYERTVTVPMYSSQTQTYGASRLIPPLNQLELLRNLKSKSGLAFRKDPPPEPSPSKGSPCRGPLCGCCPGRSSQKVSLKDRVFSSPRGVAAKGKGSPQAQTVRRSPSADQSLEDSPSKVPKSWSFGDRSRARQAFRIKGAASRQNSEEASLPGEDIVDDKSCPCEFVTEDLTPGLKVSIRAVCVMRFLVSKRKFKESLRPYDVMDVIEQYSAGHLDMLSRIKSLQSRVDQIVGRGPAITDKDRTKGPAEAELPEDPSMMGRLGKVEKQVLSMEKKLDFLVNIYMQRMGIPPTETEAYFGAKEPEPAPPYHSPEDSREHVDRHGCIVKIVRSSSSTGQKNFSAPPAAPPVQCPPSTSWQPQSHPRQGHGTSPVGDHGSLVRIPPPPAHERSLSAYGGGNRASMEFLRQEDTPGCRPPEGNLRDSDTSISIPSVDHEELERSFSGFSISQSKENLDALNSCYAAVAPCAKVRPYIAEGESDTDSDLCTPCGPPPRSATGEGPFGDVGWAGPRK
From the text: as §3, §2

[5] = target: T2, KCNQ3*[Asn220Cys] (Homo sapiens, UniProt O43525, A315T/N220C); experiment: Two-electrode voltage clamp of KCNQ3*[Asn220Cys] channels in Xenopus oocytes; format: cell-based; details: 1 μM retigabine, Asn220Cys mutant
T2 sequence (O43525 1-872 N220C/A315T): T1 sequence (O43525 1-872 A315T) with N220C
From the text: as §3, §2

[6] = tested on: KCNQ3* mutants at Thr271, Leu272, Leu314 and Leu338; experiment: Two-electrode voltage clamp of KCNQ3* mutants at Thr271, Leu272, Leu314, Leu338; format: cell-based, human; details: functional mutants, up to 300 μM retigabine
From the text: as §3, §2

[7] = target: T3, KCNQ2/3 heteromers (Homo sapiens, UniProt O43525+O43526); experiment: Two-electrode voltage clamp of heteromeric KCNQ2/3 channels in Xenopus oocytes; format: cell-based; details: 1:1 injected mRNA
T3 construct: expressed in transfected cells; host or cells: Xenopus laevis oocytes co-injected with KCNQ2 and KCNQ3 mRNA (1:1)
T3 sequence (O43526 whole entry): as above
T3 sequence (O43525 whole entry): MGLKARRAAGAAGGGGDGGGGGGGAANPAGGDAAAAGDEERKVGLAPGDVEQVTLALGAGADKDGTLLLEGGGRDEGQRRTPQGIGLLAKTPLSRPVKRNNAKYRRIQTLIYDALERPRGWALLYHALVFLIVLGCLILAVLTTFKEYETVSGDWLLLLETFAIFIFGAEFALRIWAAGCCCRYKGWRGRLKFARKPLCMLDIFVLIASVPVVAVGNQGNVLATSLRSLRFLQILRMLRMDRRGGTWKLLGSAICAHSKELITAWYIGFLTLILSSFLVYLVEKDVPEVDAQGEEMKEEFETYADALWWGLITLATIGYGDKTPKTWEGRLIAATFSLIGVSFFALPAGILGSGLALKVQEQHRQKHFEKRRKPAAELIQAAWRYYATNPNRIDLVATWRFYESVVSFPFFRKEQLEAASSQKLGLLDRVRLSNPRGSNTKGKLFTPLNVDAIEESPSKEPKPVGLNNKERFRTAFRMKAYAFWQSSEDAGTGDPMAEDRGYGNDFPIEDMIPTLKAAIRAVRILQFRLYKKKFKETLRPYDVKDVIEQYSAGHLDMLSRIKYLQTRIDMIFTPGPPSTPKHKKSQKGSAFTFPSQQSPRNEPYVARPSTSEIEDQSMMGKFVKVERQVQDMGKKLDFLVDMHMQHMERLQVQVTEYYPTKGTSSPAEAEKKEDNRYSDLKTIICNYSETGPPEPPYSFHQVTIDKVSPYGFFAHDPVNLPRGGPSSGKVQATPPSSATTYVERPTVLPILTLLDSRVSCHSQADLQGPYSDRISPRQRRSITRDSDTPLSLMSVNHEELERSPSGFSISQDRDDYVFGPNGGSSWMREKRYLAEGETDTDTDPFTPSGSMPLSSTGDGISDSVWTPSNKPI
From the text: as §3, §2

[8] = tested on: KCNQ1; details: KCNQ1 lacks the S5 Trp; cited from earlier work
[9] = target: T4, KCNQ3*[Trp265TAG] rescued with Trp (Homo sapiens, UniProt O43525, A315T); experiment: Two-electrode voltage clamp of Trp-rescued KCNQ3*[Trp265TAG] channels (nonsense suppression); format: cell-based; details: 1 μM retigabine
T4 construct: expressed in transfected cells; host or cells: Xenopus laevis oocytes co-injected with KCNQ3*[Trp265TAG] cRNA and Trp-acylated suppressor tRNA
T4 sequence (O43525 1-872 A315T): T1 sequence (O43525 1-872 A315T)
From the text: as §3, §2

O=C(Nc1cnc(Cl)nc1)c1ccc(F)c(F)c1 [ICA-069673]
drug potency relative to Trp-rescued channels [1]: not as pronounced

O=C(Nc1ccc(Cl)nc1)c1ccc(Cl)cc1 [ICA-110381]
drug potency relative to Trp-rescued channels [1]: not as pronounced
activation relative to Trp channels ([1]; F3-Trp-substituted channels): considerably more activation

Cc1cc(C)c(NC(=O)C2CC3CCC2C3)c(C)c1 (stereo not shown) [ML-213]
EC50 ([2]; KCNQ3* channels, n=5, ± s.e., read-out: EC50 for shift of activation V1/2): 3.6 ± 0.2 µM

CCOC(=O)Nc1ccc(NCc2ccc(F)cc2)cc1N [retigabine]
activation of channels (gating shift, activation kinetics) [3]: entirely abolishes retigabine activation
hyperpolarizing shift of the V1/2 of activation [4]: 40–60 mV
gating shift / sensitization to retigabine [5]: unable to generate a marked gating shift
retigabine-mediated gating shift [6]: retained a large retigabine-mediated gating shift
EC50 [2]: 11.6 ± 0.4 µM
increase in peak current ([2]; KCNQ3* channels, rarely greater than): ≤ 15%
hyperpolarizing shift of the V1/2 of activation ([2]; homomeric KCNQ3*, Xenopus oocytes, 100 μM retigabine (Fig. 1)): 40–60 mV
stabilization of channel opening, ΔG=Δ(zFV1/2) ([2]; saturating retigabine, calculated from shift of conductance–voltage relationship): ~6 kcal/mol
shift in the voltage dependence of activation ([1]; 1 μM retigabine, F3-Trp at Trp265): much larger response
retigabine-mediated gating shift [7]: ~−40 mV
hyperpolarizing shift of V1/2 of activation [8]: absent
shift in the voltage dependence of activation [9]: very little shift
